Several values for one entry are separate records, joined by “and”; a condition that tells them apart may be missing. Equal entries are not always repeated.
Assays:
[1] = Urinary recovery of cyclic acetal and conversion to bisphosphonate after IV administration to rats; assay type: in vivo, rat; conditions: for dosed cyclic acetal converted to risedronate: male, Sprague-Dawley
Method: (§1) Male, Sprague-Dawley, rats weighing approximately 200-400 g were studied.
(§2) All formulations were prepared within approximately 1 hour of dosing.
Generally, animals were administered a 1.7 micromole/kg, 2 ml/kg IV dose (tail vein) of the appropriate formulation using a syringe and attached butterfly needle. All animals remained fasted for an additional 4 hours post dose and were returned to ad libitum access to food thereafter.
(§3) Urine samples were collected into refrigerated plastic conical tubes at approximately 4, 8 and 24 hours post-dose. At the end of each collection period, samples were weighed and transferred to a −70° C. freezer for storage until analyzed.
The absorbed risedronate is stable in vivo and is not metabolized. After IV administration of risedronate to rats, about 60% of risedronate binds to bone and about 40% of risedronate dosed is excreted in urine. When risedronate cyclic acetal compounds are administered intravenously to rats, a percentage of the cyclic acetal can remain intact and can be excreted in urine while a percentage of the cyclic acetal can be converted to risedronate in vivo. Assuming risedronate formed in vivo has the similar tissue distribution profile as described above, about 40% of risedronate generated in vivo will be excreted in urine and about 60% of risedronate generated in vivo will bind to bone. Thus, the percentage of the cyclic acetal which is converted to risedronate in vivo is estimated using Formula A: […]
Risedronate cyclic acetal compounds were administered intravenously in saline (0.9% sodium chloride).

[2] = Solubility in water (remark in synthesis example); assay type: physicochemical; conditions: calcium salt
[3] = system: Sprague Dawley rats (Schenk Model); test: Schenk Model: bone mineral density of proximal tibial metaphysis by DXA; assay type: in vivo, rat; conditions: for D20, 20% > BMD than control / LED (lowest effective dose): SQ once daily for 7 days, rats; for D20, 20% > BMD than control: logistic dose response relationship; for LED (lowest effective dose): significant anti-resorptive dose vs control; for bone density in the rat proximal tibial metaphysis: Schenk Model
Method: The effect of the compounds (Example 62 (trans) and Example 128) on in vivo bone resorption inhibition and mineralization inhibition was evaluated in the Schenk Model, an animal model system known in the field of bone metabolism. The general principles of this model are disclosed in Shinoda et al., Calcif. Tissue Int., 35: 87-99 (1983); and in Schenk et al., Calcif: Tissue Res. 11: 196-214 (1973).
Male Sprague Dawley rats approximately 6 weeks old with weights ranging between 120 and 150 grams were placed into groups based on body weight, with 4-8 animals per group. All groups received treatment by subcutaneous injection (SQ) once daily for 7 days.
On day 7 after the start of dosing, all animals were euthanized via exsanguination under gas anesthesia and/or CO2. The right tibia and femur were dissected free and placed in 70% ethyl alcohol.
The proximal metaphysis of the right tibia was analyzed using dual energy x-ray absorptiometry (DXA). This provides information on changes in both cortical and cancellous bone density. The primary end-point for this study was bone mineral density (BMD) in the tibia measured using Hologics QDR-4500 densitometer (Hologics, Inc). Statistical evaluation of data was made using parametric and non-parametric analysis of variance and Fisher's protected t-test to determine a statistically significant effect compared to control animals, defined as the lowest effective (significant anti-resorptive) dose (LED).
The dose which increased (BMD) 20% compared to the vehicle group (D20) was calculated via a logistic dose response relationship, which estimates an efficacy value using all animals in the study (Lundy et al., J. Bone Min. Res. 22 (Suppl. 1): S443, (2007)).

[4] = Urinary recovery / risedronate exposure after intraduodenal (ID) and oral (PO) administration to fasted and fed rats; assay type: in vivo, rat; conditions: for Amount Excreted: Risedronate (risedronate administered): dose 17 micromole/kg, rats
Method: as §1, §2
The appropriate test article formulation was administered to each animal as a 17 micromole/kg, 2 mL/kg dose solution in 0.6% methylcellulose/0.2% Tween 80® by oral gavage. Alternatively, animals were dosed with a 17 micromole/kg, 1 mL/kg dose solution in saline through a cannula into the duodenum. Animals in the fasted groups were fasted for approximately 4 hours after dosing and were returned to ad libitum access to food thereafter. Animals in the fed groups had access to food ad libitum for at least 2 hours prior to dosing, and throughout the day post dose.
as §3
Example 62 (trans) and risedronate were administered via intraduodenal (ID) and oral administration to fasted and fed rats. Similar to the procedure described above in relation to the IV study, the urine of the rats was collected, and risedronate was recovered from urine. Risedronate exposure following ID and oral administration was calculated as percentage of the recovered risedronate from the dosed cyclic acetal (Formula A), and the results were compared to that from dosing with risedronate, See Table 4.

[5] = IV, dose 1.7 micromole/kg, rats, % CV in parentheses
[6] = after IV administration of risedronate to rats

With `CC(=O)Oc1ccc(C2OP(=O)(O)C(O)(Cc3cccnc3)P(=O)(O)O2)cc1` (centres unmarked) [Example 28] the “urinary recovery of the cyclic acetal” value ([1]; rat, in vivo, iv) was “very low”.

In the case of `CCCC(=O)Oc1ccc(C2OP(=O)(O)C(O)(Cc3cccnc3)P(=O)(O)O2)cc1` (centres unmarked) [Example 29], the “dosed cyclic acetal converted to risedronate” value ([1]; rat, in vivo, iv) is reported as greater than 100% and the “urinary recovery of the cyclic acetal” value ([1]; rat, in vivo, iv) is reported as “very low”.

For `CCCC(=O)Oc1ccc(C2OP(=O)(O)C(O)(Cc3cccnc3)P(=O)(O)O2)cc1F` (centres unmarked) [Example 30], the “urinary recovery of the cyclic acetal” value ([1]; rat, in vivo, iv) was “very low”.

In the case of `CC(C)C(=O)Oc1ccc(C2OP(=O)(O)C(O)(Cc3cccnc3)P(=O)(O)O2)cc1` (stereo not drawn) [Example 33 (trans)], the “urinary recovery of the cyclic acetal” value ([1]; rat, in vivo, iv) is reported as “very low”.

In the case of `CCOC(=O)Oc1ccc(C2OP(=O)(O)C(O)(Cc3cccnc3)P(=O)(O)O2)cc1` (centres unmarked) [Example 36], the “systemic exposure of cyclic acetal and risedronate” value (shortened to “systemic exposure”) ([1]; rat, in vivo, iv) is reported as “both systemic exposure of the cyclic acetal and risedronate”.

In the case of `CC(C)=CC(=O)Oc1ccc(C2OP(=O)(O)C(O)(Cc3cccnc3)P(=O)(O)O2)cc1F` (centres unmarked) [Example 47], the “urinary recovery of the cyclic acetal” value ([1]; rat, in vivo, iv) is reported as “very low”.

With `COC(=O)Oc1ccccc1C1OP(=O)(O)C(O)(Cc2cccnc2)P(=O)(O)O1` (stereo not drawn) [Example 50 (trans)] the “systemic exposure” value ([1]; rat, in vivo, iv) was “both systemic exposure of the cyclic acetal and risedronate”.

For `O=C(Oc1c(F)cccc1C1OP(=O)(O)C(O)(Cc2cccnc2)P(=O)(O)O1)N1CCOCC1` (centres unmarked) [Example 53], the solubility in water [2] was “very low”.

For `CC(C)OC(=O)Oc1ccccc1C1OP(=O)(O)C(O)(Cc2cccnc2)P(=O)(O)O1` (stereo not drawn) [Example 62 (trans)], the “risedronate release rate into the bloodstream vs risedronate” value ([1]; rat, in vivo, iv) was “slower”, the “systemic exposure” value ([1]; rat, in vivo, iv) was “both systemic exposure of the cyclic acetal and risedronate” and the “D20, 20% > BMD than control” value [3] was 5 mcg P/kg. The “LED (lowest effective dose)” value [3] was 3 mcg P/kg and the “bone density in the rat proximal tibial metaphysis” value [3] was “efficacious”.

With `CC(C)OC(=O)Oc1ccc(C2OP(=O)(O)C(O)(Cc3cccnc3)P(=O)(O)O2)c(F)c1` (centres unmarked) [Example 63] the “urinary recovery of the cyclic acetal” value ([1]; rat, in vivo, iv) was “very low”.

For `O=C(Cc1ccccc1)Oc1ccc(C2OP(=O)(O)C(O)(Cc3cccnc3)P(=O)(O)O2)cc1` (stereo not drawn) [Example 79 (trans)], the “Amount of Cyclic Acetal Excreted” value [1, 5] was 0.3 (220) % of administered dose excreted in urine.

For `O=C(Cc1ccccc1)Oc1ccc(C2OP(=O)(O)C(O)(Cc3cccnc3)P(=O)(O)O2)cc1` (centres unmarked) [Example 79], the “urinary recovery of the cyclic acetal” value ([1]; IV, rats, rapid rate of conversion to risedronate in vivo) was “very low”.

For `O=C1OCCN1C(=O)Oc1ccccc1C1OP(=O)(O)C(O)(Cc2cccnc2)P(=O)(O)O1` (centres unmarked) [Example 82], the “dosed cyclic acetal converted to risedronate” value ([1]; rat, in vivo, iv) was 43%.

With `CC1(C)CN(C(=O)Oc2cc(F)c(C3OP(=O)(O)C(O)(Cc4cccnc4)P(=O)(O)O3)c(F)c2)C(=O)O1` (centres unmarked) [Example 83] the “urinary recovery of the cyclic acetal” value ([1]; rat, in vivo, iv) was “very low”.

For `CCCC(=O)Oc1ccccc1C1OP(=O)(O)C(O)(Cc2cccnc2)P(=O)(O)O1` (centres unmarked) [Example 105], the “urinary recovery of the cyclic acetal” value ([1]; rat, in vivo, iv) was “very low”.

In the case of `CC(C)OC(=O)Oc1ccccc1C1OP(=O)(O)C(O)(Cn2ccnc2)P(=O)(O)O1` (centres unmarked) [Example 128, Carbonic acid isopropyl ester 2-(2,3,4-trihydroxy-3-imidazol-1-ylmethyl-2,4-dioxo-2λ^5,4λ^5-[1,5,2,4]dioxadiphosphinan-6-yl)-phenyl ester], the “D20, 20% > BMD than control” value [3] is reported as 0.5 mcg P/kg, the “LED (lowest effective dose)” value [3] is reported as 1 mcg P/kg and the “bone density in the rat proximal tibial metaphysis” value [3] is reported as “efficacious”.

In the case of `O=P(O)(O)C(O)(Cc1cccnc1)P(=O)(O)O` [Risedronate, risedronate, reference compound], the “Amount Excreted: Risedronate (risedronate administered)” value (“Amount Excreted: Risedronate” for short) [1, 5] is reported as 36 (13) % of administered dose excreted in urine and 39 % of administered dose excreted in urine, the “risedronate binds to bone” value [1, 6] is reported as “about 60%” and the “risedronate dosed excreted in urine” value [1, 6] is reported as “about 40%”. The “Amount Excreted: Risedronate” value ([4]; ID fed, % CV in parentheses) was 0.012 (50) % of administered dose excreted in urine, the “Amount Excreted: Risedronate” value ([4]; Oral fast) was 0.13 % of administered dose excreted in urine and the “Amount Excreted: Risedronate” value ([4]; Oral fed) was 0.003 % of administered dose excreted in urine. For the same molecule, the “risedronate exposure with food compared to fasted rats” value ([4]; fed rats) was “extensive reduction”, the “risedronate exposure as estimated by urinary recovery” value ([4]; orally to fasted rats) was “less than 1 % of dose” and the “D20, 20% > BMD than control” value [3] was 1.8 mcg P/kg. For the same molecule, the “LED (lowest effective dose)” value [3] was 1 mcg P/kg.

For `O=P(O)(O)C(O)(Cn1ccnc1)P(=O)(O)O` [Zoledronic acid, (1-hydroxy-2-imidazol-1-yl)-ethyl-1,1-bisphosphonic acid, reference compound], the “D20, 20% > BMD than control” value [3] was 0.1 mcg P/kg and the “LED (lowest effective dose)” value [3] was 0.1 mcg P/kg.
